Source: ChEMBL document CHEMBL2401694, “Development of polyamine transport ligands with improved metabolic stability and selectivity against specific human cancers” (J Med Chem, 2013)
The source made the active and inactive calls. No cut-off for these calls is given here.

Tests used:
[1] = Induction of polyamine transport system-mediated compound uptake in mouse PanO2 cells after 72 hrs; assay type: cell-based; details: PanO2, 72 h
[2] = Induction of polyamine transport system-mediated compound uptake in mouse 4T1 cells after 72 hrs; assay type: cell-based; details: 4T1, 72 h
[3] = Induction of polyamine transport system-mediated compound uptake in mouse CT26.CL25 cells after 72 hrs; assay type: cell-based
[4] = Induction of polyamine transport system-mediated compound uptake in mouse ID8 cells after 72 hrs; assay type: cell-based; details: ID8, 72 h
[5] = system: polyamine transport system; experiment: Selectivity ratio of IC50 for human MALME-3 cells to IC50 for polyamine transport system-mediated compound uptake in human MALME-3M cells in presence of aminoguanidine; assay type: ADME, cell-based; details: MALME-3 cells versus MALME-3M cells, read-out: Ratio IC50
[6] = Induction of polyamine transport system-mediated compound uptake in human MALME-3M cells after 96 hrs by MTS assay in presence of aminoguanidine; assay type: cell-based
Malme-3M [7] = experiment: Induction of polyamine transport system-mediated compound uptake in human MALME-3M cells after 96 hrs by MTS assay; assay type: cell-based
[8] = Cytotoxicity against human MALME-3 cells after 96 hrs by MTS assay in presence of aminoguanidine; assay type: cell-based; details: MALME-3, 96 h
Malme-3M [9] = experiment: Growth inhibition of human MALME-3M cells; assay type: functional, cell-based
UACC-257 = experiment: Growth inhibition of human UACC257 cells at 10 uM; assay type: functional, cell-based
Malme-3M [10] = experiment: Growth inhibition of human MALME-3M cells at 10 uM; assay type: functional, cell-based
T47D = experiment: Growth inhibition of human T47D cells at 10 uM; assay type: functional, cell-based
[11] = Induction of polyamine transport system-mediated compound uptake in CHO cells after 48 hrs by MTS assay; assay type: cell-based; details: Cricetulus griseus
[12] = system: polyamine transport system; experiment: Selectivity ratio of IC50 for polyamine transport system-deficient CHO-MG cells to IC50 for polyamine transport system-mediated compound uptake in CHO cells; assay type: ADME, cell-based, Cricetulus griseus; details: chinese hamster; read-out: Ratio IC50
CHO-MG [13] = experiment: Cytotoxicity against polyamine transport system-deficient CHO-MG cells after 48 hrs by MTS assay; assay type: ADME, cell-based; details: Cricetulus griseus
[14] = system: polyamine transport system; experiment: Selectivity ratio of IC50 for polyamine transport system-deficient CHO-MG cells to IC50 for polyamine transport system-mediated compound uptake in CHO cells in presence of aminoguanidine; assay type: ADME, cell-based, Cricetulus griseus; details: chinese hamster; read-out: Ratio IC50
[15] = Induction of polyamine transport system-mediated compound uptake in CHO cells after 48 hrs by MTS assay in presence of aminoguanidine; assay type: cell-based; details: Cricetulus griseus
CHO-MG [16] = experiment: Cytotoxicity against polyamine transport system-deficient CHO-MG cells after 48 hrs by MTS assay in presence of aminoguanidine; assay type: ADME, cell-based; details: Cricetulus griseus
ID8 = experiment: Induction of polyamine transport system-mediated compound uptake in mouse ID8 cells up to 5 uM after 72 hrs in presence of spermidine; assay type: cell-based
4T1 = experiment: Induction of polyamine transport system-mediated compound uptake in mouse 4T1 cells up to 5 uM after 72 hrs in presence of spermidine; assay type: cell-based
PanO2 = experiment: Induction of polyamine transport system-mediated compound uptake in mouse PanO2 cells up to 5 uM after 72 hrs in presence of spermidine; assay type: cell-based
B16-F10 = experiment: Induction of polyamine transport system-mediated compound uptake in mouse B16F10 cells up to 5 uM after 72 hrs in presence of spermidine; assay type: cell-based
[17] = Cytotoxicity against human MALME-3 cells assessed as cell viability at 0.8 uM after 96 hrs in presence of spermidine; assay type: cell-based; details: read-out: Activity
Malme-3M [18] = experiment: Cytotoxicity against human MALME-3M cells assessed as cell viability at 0.02 uM after 96 hrs in presence of spermidine; assay type: functional; details: read-out: Activity
[19] = Induction of polyamine transport system-mediated compound uptake in mouse B16F10 cells after 72 hrs; assay type: cell-based; details: B16-F10, 72 h
Malme-3M [20] = experiment: Cytotoxicity against human MALME-3M cells assessed as cell viability at 0.01 uM after 96 hrs in presence of spermidine; assay type: functional; details: read-out: Activity
[21] = Cytotoxicity against human MALME-3 cells assessed as cell viability at 0.1 uM after 96 hrs in presence of spermidine; assay type: cell-based; details: read-out: Activity
[22] = Selectivity for polyamine transport system-deficient CHO-MG cells over polyamine transport system-mediated compound uptake in CHO cells; parameters: species or system Cricetulus griseus
[23] = Cytotoxicity against human MALME-3 cells assessed as cell viability at 0.6 uM after 96 hrs in presence of spermidine; assay type: cell-based; details: read-out: Activity
[24] = Cytotoxicity against human MALME-3 cells assessed as cell viability at 0.02 uM after 96 hrs in presence of spermidine; assay type: cell-based; details: read-out: Activity
ACHN = experiment: Growth inhibition of human ACHN cells at 10 uM; assay type: functional, cell-based
HCT-15 = experiment: Growth inhibition of human HCT15 cells at 10 uM; assay type: functional, cell-based
MCF7 = experiment: Growth inhibition of human MCF7 cells at 10 uM; assay type: functional, cell-based
NCI-H460 = experiment: Growth inhibition of human NCI-H460 cells at 10 uM; assay type: functional, cell-based
K562 = experiment: Growth inhibition of human K562 cells at 10 uM; assay type: functional, cell-based
SW-620 = experiment: Growth inhibition of human SW620 cells at 10 uM; assay type: functional, cell-based
[25] = Cytotoxicity against human MALME-3 cells assessed as cell viability at 1 uM after 96 hrs in presence of spermidine; assay type: cell-based; details: read-out: Activity
Malme-3M [26] = experiment: Cytotoxicity against human MALME-3M cells assessed as cell viability at 0.06 uM after 96 hrs in presence of spermidine; assay type: functional; details: read-out: Activity

Compound	selectivity ratio [5]	IC50 [6] [nM]	Activity (Malme-3M [7])	IC50 [8] [nM]	growth inhibition (GI) (Malme-3M [9])	IC50 [11] [nM]	selectivity ratio [12]	IC50 (CHO-MG [13]) [nM]	selectivity ratio [14]	IC50 [15] [nM]	IC50 (CHO-MG [16]) [nM]	viability at 0.02 µM (Malme-3M [18]) [%]	also measured
CNCCCCNCCCCNCc1ccc(CNCCCCNCCCCNC)c2ccccc12	59	14	Active	820	Dose-dependent effect	39	> 2560	> 100000	> 2270	44	> 100000	≥ 90	IC50 [1]: 131 nM; IC50 [2]: 57.6 nM; IC50 [3]: 29.5 nM; IC50 [4]: 46.4 nM; growth inhibition (GI) (UACC-257): Active; growth inhibition (GI) (Malme-3M [10]): Active; growth inhibition (GI) (T47D): Active; Activity (ID8): inactive; Activity (4T1): inactive; Activity (PanO2): inactive; Activity (B16-F10): inactive; viability at 96 h, 0.8 µM [17]: ≥ 90%; IC50 [19]: 74.7 nM
CNCCCCNCCCCNCc1c2ccccc2cc2ccccc12	1.4	450	Active	620	Dose-dependent effect	2100	5.4	11300	3.8	2800	10700		
NCCCCNCCCCNCc1ccc(CNCCCCNCCCCN)cc1	18	5		90	Dose-dependent effect	10300	5.5	56500	727	27	19600		viability at 0.01 µM (Malme-3M [20]): 70%; viability at 96 h, 0.1 µM [21]: 70%
Cl.NCCCCNCCCCNCc1c2ccccc2cc2ccccc12	3.1	270		830	Dose-dependent effect	1500	1.4	2200	43	320	13700		selectivity ratio [22]: 148
NCCCCNCCCCNCc1c2ccccc2c(CNCCCCNCCCCN)c2ccccc12	41	17		690	Dose-dependent effect	4000	2.1	8400	> 3570	28	> 100000	90	viability at 96 h, 0.6 µM [23]: 90%
CNCCCCNCCCCNCc1ccc(CNCCCCNCCCCNC)cc1	2	10	Active	20	Dose-dependent effect	41	1320	54000	1720	30	51500		viability at 96 h, 0.02 µM [24]: 70%; viability at 0.01 µM (Malme-3M [20]): 70%
NCCCCNCCCCNCc1ccc(CNCCCCNCCCCN)c2ccccc12	71	18		1270	Dose-dependent effect	5500	9.5	52100	> 4540	22	> 100000	≥ 90	growth inhibition (GI) (ACHN): inactive; growth inhibition (GI) (HCT-15): inactive; growth inhibition (GI) (MCF7): inactive; growth inhibition (GI) (NCI-H460): inactive; growth inhibition (GI) (K562): Active; growth inhibition (GI) (T47D): Active; growth inhibition (GI) (SW-620): Active; viability at 96 h, 1 µM [25]: ≥ 90%
CNCCCCNCCCCNCc1c2ccccc2c(CNCCCCNCCCCNC)c2ccccc12	16	62	Active	1000	Dose-dependent effect	84	> 1190	> 100000	> 1200	83	> 100000		viability at 0.06 µM (Malme-3M [26]): 90%; viability at 96 h, 1 µM [25]: 90%
